molecular target: T1, glucocorticoid receptor (Homo sapiens, UniProt P04150); test: Ligand binding assay (GRBind), 3H-dexamethasone displacement in HeLa cell lysate; details: 3H-DEX tracer
T1 construct: endogenous in cells; host or cells: HeLa (ATCC) cell lysate supernatant
T1 sequence (P04150 1-777): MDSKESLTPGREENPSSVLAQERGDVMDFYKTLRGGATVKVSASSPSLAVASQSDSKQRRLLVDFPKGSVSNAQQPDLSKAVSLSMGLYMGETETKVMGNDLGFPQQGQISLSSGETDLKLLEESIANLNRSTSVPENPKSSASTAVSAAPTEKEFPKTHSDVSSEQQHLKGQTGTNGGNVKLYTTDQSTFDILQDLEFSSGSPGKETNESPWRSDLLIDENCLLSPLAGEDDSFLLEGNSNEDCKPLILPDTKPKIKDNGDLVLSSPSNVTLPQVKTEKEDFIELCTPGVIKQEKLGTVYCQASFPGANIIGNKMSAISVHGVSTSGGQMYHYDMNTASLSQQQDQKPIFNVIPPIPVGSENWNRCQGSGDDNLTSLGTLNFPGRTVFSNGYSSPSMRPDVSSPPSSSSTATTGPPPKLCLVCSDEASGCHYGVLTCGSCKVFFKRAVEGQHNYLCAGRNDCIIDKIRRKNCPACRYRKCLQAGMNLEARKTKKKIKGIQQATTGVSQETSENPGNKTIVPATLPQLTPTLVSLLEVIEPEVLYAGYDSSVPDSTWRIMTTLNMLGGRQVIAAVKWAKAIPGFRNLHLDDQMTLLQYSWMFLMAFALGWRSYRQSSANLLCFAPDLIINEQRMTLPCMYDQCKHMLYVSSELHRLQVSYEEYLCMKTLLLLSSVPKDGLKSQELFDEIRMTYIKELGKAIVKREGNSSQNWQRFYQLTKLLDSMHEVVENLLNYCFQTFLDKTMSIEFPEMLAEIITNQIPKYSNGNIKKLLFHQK
Description: Binding Buffer: TEGM (10 mM Tris-HCl, 1 mM EDTA, 10% glycerol, 1 mM betamecaptoethanol, 10 mM Sodium Molybdate, pH 7.2)
50% HAP Slurry: Calbiochem Hydroxylapatite, Fast Flow, in 10 mM Tris, pH 8.0 and 1 mM EDTA.
Wash Buffer: 40 mM Tris, pH7.5, 100 mM KCl, 1 mM EDTA and 1 mM EGTA. 95% EtOH Dexmethasone-methyl-3H, (DEXA*); (Amersham cat#TRK645) Dexamethasone(DEX) (Sigma, cat#01756):
Hydroxylapatite Fast Flow; Calbiochem Cat#391947
25 Molybdate=Molybdic Acid (Sigma, M1651)
5 Cells (Hall R. E., et al., European Journal of Cancer, 30A: 484-490 (1994)) HeLa (ATCC) cultured in RPMI 1640 (Gibed 11835-055) containing 20 mM Hepes, 4 mM L-glu, 10 ug/ml of human insulin (Sigma, 1-0259), 10% FBS and 20 uglml of Gentamicin (Gibco#15710072) are rinsed twice in PBS. Phenol red-free Trypsin-EDTA is diluted in the same PBS 1:10. The cell layers are rinsed with IX Trypsin, extra Trypsin is poured out, and the cell layers are incubated at 37° C. for 2 min. The flask is tapped and checked for signs of cell detachment. Once the cells begin to slide off the flask, the complete media is added. The cells are counted at this point, then diluted to the appropriate concentration and split into flasks or dishes for further culturing (Usually 1:3 to 1:6 dilution).
Preparation of HeLa Cell Lysate
When the cells are 70 to 85% confluent, they are detached as described above, and collected by centrifuging at 1000 g for 10 min at 4° C. The cell pellet is washed twice with TEGM (10 mM Tris-HCl, 1 mM EDTA, 10% glycerol, 1 mM beta-mercaptoethanol, 10 mM Sodium Molybdate, pH 7.2). After the final wash, the cells are resuspended in TEGM at a concentration of 10^7 cells/mL. The cell suspension is snap frozen in liquid nitrogen or ethanol/dry ice bath and transferred to −80° C. freezer on dry ice. Before setting up the binding assay, the frozen samples are left on ice-water to just thaw. Then the samples are centrifuged at 12,500 g to 20,000 g for 30 min at 4° C. The supernatant is used to set-up assay right away. If using 50 μL of supernatant, the test compound can be prepared in 50 μL of the TEGM buffer.
Procedure for Multiple Compound Screening
1×TEGM buffer is prepared, and the isotope-containing assay mixture is prepared in the following order: EtOH (2% final concentration in reaction), 3H-DEX (Amersham Biosciences) and 1×TEGM. [e.g. For 100 samples, 200 JlL (100×2) of EtOH+4.25 JlL of 1:10 ^3H-Dex stock+2300 μL (100×23) 1×TEGM]. The compound is serially diluted, e.g., if starting final conc. is 1 μM, and the compound is in 25 μL of solution, for duplicate samples, 75 μL of 4×1 μM solution is made and 3 μL of 100). 1M is added to 72 μL of buffer, and 1:5 serial dilution.
25 μL of ^3H-DEX (6 nM) trace and 25 μL, compound solution are first mixed together, followed by addition of 50 μL receptor solution. The reaction is gently mixed, spun briefly at about 200 rpm and incubated at 4° C. overnight. 100 μL of 50% HAP slurry is prepared and added to the incubated reaction which is then vortexed and incubated on ice for 5 to 10 min. The reaction mixture is vortexed twice more to resuspend HAP while incubating reaction. The samples in 96-well format are then washed in wash buffer using the FilterMate™ Universal Harvester plate washer (Packard). The washing process transfers HAP pellet containing ligand-bound expressed receptor to Unifilter-96 GFIB filter plate (Packard). The HAP pellet on the filter plate is incubated with […] of MICROSCINT (Packard) scintillant for 30 min before being counted on the TopCount microscintillation counter (Packard). IC50s are calculated using DEX as a reference.

`O=S(=O)(c1ccccc1CC[C@]1(O)CCC2=Cc3c(cnn3-c3ccc(F)cc3)C[C@@]21C1CC1)C1CC1` [Example 63, (4aR,5R)-4a-Cyclopropyl-5-{2-[2-(cyclopropylsulfonyl)phenyl]ethyl}-1-(4-fluorophenyl)-1,4,4a,5,6,7-hexahydrocyclopenta[f]indazol-5-ol] and `NC(=O)CNC(=O)c1ccccc1CC[C@]1(O)CCC2=Cc3c(cnn3-c3ccc(F)cc3)C[C@@]21C1CC1` [Example 47, N-(2-Amino-2-oxoethyl)-2-{2-[(4aR,5R)-4a-cyclopropyl-1-(4-fluorophenyl)-5-hydroxy-1,4,4a,5,6,7-hexahydrocyclopenta[f]indazol-5-yl]ethyl}benzamide] are within 1.5-fold of each other in Ki: 1.69 nM for the first, 1.43 nM for the second.

`CC[C@]12Cc3cnn(-c4ccc(F)cc4)c3C=C1CC[C@@]2(O)CC1OC(=O)c2ccccc21` (stereo partly drawn) [Example 71, 3-{[(4aS,5R)-4a-Ethyl-1-(4-fluorophenyl)-5-hydroxy-1,4,4a,5,6,7-hexahydrocyclopenta[f]indazol-5-yl]methyl}-2-benzofuran-1(3H)-one] and `CC[C@]12Cc3cnn(-c4ccc(F)cc4)c3C=C1CC[C@@]2(O)CCc1ccccc1C(O)C(N)=O` (stereo partly drawn) [Example 25, 2-(2-{2-[(4aS,5R)-4a-Ethyl-1-(4-fluorophenyl)-5-hydroxy-1,4,4a,5,6,7-hexahydrocyclopenta[f]indazol-5-yl]ethyl}phenyl)-2-hydroxyacetamide] are within 1.5-fold of each other in Ki: 2.97 nM for the first, 3.23 nM for the second.

First: CC[C@]12Cc3cnn(-c4ccccc4)c3C=C1CC[C@@]2(O)CC(O)c1ccccn1 (single isomer, unassigned) [Example 67a]
Second: CC[C@]12Cc3cnn(-c4ccccc4)c3C=C1CC[C@@]2(O)CC(O)c1cc(C#N)ccn1 (stereo partly drawn) [Example 75, 2-{2-[(4aS,5R)-4a-Ethyl-5-hydroxy-1-phenyl-1,4,4a,5,6,7-hexahydrocyclopenta[f]indazol-5-yl]-1-hydroxyethyl}pyridine-4-carbonitrile]
The Ki of the first is 3.8-fold higher: 11.3 nM for the first, 2.97 nM for the second. The second binds more tightly here.

Compared with `CC[C@]12Cc3cnn(-c4ccccc4)c3C=C1CC[C@@]2(O)CCc1ccc(F)cc1C(N)=O` [Example 6], `CC[C@]12Cc3cnn(-c4cccnc4)c3C=C1CC[C@@]2(O)CCc1ccccc1C(N)=O` [Example 13, 2-{2-[(4aS,5R)-4a-Ethyl-5-hydroxy-1-(pyridin-3-yl)-1,4,4a,5,6,7-hexahydrocyclopenta[f]indazol-5-yl]ethyl}benzamide] is 9-fold higher in Ki: 3.17 nM for the first, 28.4 nM for the second. The first binds more tightly here.

`CC[C@]12Cc3cnn(-c4ccc(F)cc4)c3C=C1CC[C@@]2(O)CC(O)c1ncccc1F` (stereo partly drawn) [Example 77, (4aS,5R)-4a-Ethyl-1-(4-fluorophenyl)-5-[2-(3-fluoropyridin-2-yl)-2-hydroxyethyl]-1,4,4a,5,6,7-hexahydrocyclopenta[f]indazol-5-ol] and `CC[C@]12Cc3cnn(-c4ccc(F)cc4)c3C=C1CC[C@@]2(O)CC(O)c1ccc(F)cn1` (single isomer, unassigned) [Example 69a] are within 1.5-fold of each other in Ki: 4.39 nM for the first, 4.41 nM for the second.

`NC(=O)c1cc(F)ccc1CC[C@]1(O)CCC2=Cc3c(cnn3-c3ccc(F)cc3)C[C@@]21C1CC1` [Example 39, 2-{2-[(4aR,5R)-4a-Cyclopropyl-1-(4-fluorophenyl)-5-hydroxy-1,4,4a,5,6,7-hexahydrocyclopenta[f]indazol-5-yl]ethyl}-5-fluorobenzamide] and `NC(=O)Cc1c(F)cccc1CC[C@]1(O)CCC2=Cc3c(cnn3-c3ccc(F)cc3)C[C@@]21C1CC1` [Example 61, 2-(2-{2-[(4aR,5R)-4a-Cyclopropyl-1-(4-fluorophenyl)-5-hydroxy-1,4,4a,5,6,7-hexahydrocyclopenta[f]indazol-5-yl]ethyl}-6-fluorophenyl)acetamide] are within 1.5-fold of each other in Ki: 1.98 nM for the first, 2.08 nM for the second.

Going from `NC(=O)c1cccnc1CC[C@]1(O)CCC2=Cc3c(cnn3-c3ccc(F)cc3)C[C@@]21C1CC1` [Example 1, 2-{2-[(4aR,5R)-4a-Cyclopropyl-1-(4-fluorophenyl)-5-hydroxy-1,4,4a,5,6,7-hexahydrocyclopenta[f]indazol-5-yl]ethyl}pyridine-3-carboxamide] to `COc1ccnc(CC[C@]2(O)CCC3=Cc4c(cnn4-c4ccc(F)cc4)C[C@@]32C2CC2)c1C(N)=O` [Example 54, 2-{2-[(4aR,5R)-4a-Cyclopropyl-1-(4-fluorophenyl)-5-hydroxy-1,4,4a,5,6,7-hexahydrocyclopenta[f]indazol-5-yl]ethyl}-4-methoxypyridine-3-carboxamide], the Ki falls from 4.51 nM to 2.44 nM (1.8-fold).

Compared with `CC(C)(CO)NC(=O)c1ccccc1CC[C@]1(O)CCC2=Cc3c(cnn3-c3ccc(F)cc3)C[C@@]21C1CC1` [Example 45, 2-{2-[(4aR,5R)-4a-Cyclopropyl-1-(4-fluorophenyl)-5-hydroxy-1,4,4a,5,6,7-hexahydrocyclopenta[f]indazol-5-yl]ethyl}-N-(1-hydroxy-2-methylpropan-2-yl)benzamide], `N#Cc1c(F)cccc1CC[C@]1(O)CCC2=Cc3c(cnn3-c3ccccc3)C[C@@]21C1CC1` [Example 28, 2-{2-[(4aR,5R)-4a-Cyclopropyl-5-hydroxy-1-phenyl-1,4,4a,5,6,7-hexahydrocyclopenta[f]indazol-5-yl]ethyl}-6-fluorobenzonitrile] is 1.7-fold lower in Ki: 2.09 nM for the first, 1.24 nM for the second. The second binds more tightly here.

Going from `N#Cc1ccccc1CC[C@]1(O)CCC2=Cc3c(cnn3-c3cccnc3)C[C@@]21C1CC1` [Example 30, 2-{2-[(4aR,5R)-4a-Cyclopropyl-5-hydroxy-1-(pyridin-3-yl)-1,4,4a,5,6,7-hexahydrocyclopenta[f]indazol-5-yl]ethyl}benzonitrile] to `NS(=O)(=O)c1ccccc1CC[C@]1(O)CCC2=Cc3c(cnn3-c3cccnc3)C[C@@]21C1CC1` [Example 24, 2-{2-[(4aR,5R)-4a-Cyclopropyl-5-hydroxy-1-(pyridin-3-yl)-1,4,4a,5,6,7-hexahydrocyclopenta[f]indazol-5-yl]ethyl}benzenesulfonamide], the Ki rises from 1.36 nM to 2.19 nM (1.6-fold).

Work on `CC[C@]12Cc3cnn(-c4ccc(F)cc4)c3C=C1CC[C@@]2(O)CCc1cc(C(F)(F)F)ccn1` [Example 34, (4aS,5R)-4a-Ethyl-1-(4-fluorophenyl)-5-{2-[4-(trifluoromethyl)pyridin-2-yl]ethyl}-1,4,4a,5,6,7-hexahydrocyclopenta[f]indazol-5-ol] yielded a Ki of 2.23 nM.

— patent US20120214847A1, “2-[1-PHENYL-5-HYDROXY-4a-SUBSTITUTED-HEXAHYDROCYCLOPENTA[F]INDAZOL-5-YL]ETHYL PHENYL DERIVATIVES AS GLUCOCORTICOID RECEPTOR LIGANDS” (Merck Sharp & Dohme Corp., priority 2009, published 2012)
